According to US20040058901A1, “Crystalline ethanolate solvate form of zafirluskast process for manufacture and pharmaceutical compositions thereof” (priority 2000, published 2004):
Where “and” joins values, the source holds several entries; their conditions need not be identical. Identical values can stand only once. Entries after “also recorded” stand apart in the source; their conditions may differ. Like-named read-outs stand apart in the source and are kept apart here. Each block holds one molecule with its values, some of them ahead of it.

Key:
[1] = cited from earlier work; for physical stability of the solid form: as disclosed in U.S. Pat. No. 5,993,859
[2] = as disclosed in U.S. Pat. No. 5,993,859; cited from earlier work
[3] = Hygroscopicity comparison in controlled humidity chambers, Karl Fisher water content; format: physicochemical; conditions: compared with zafirlukast Form A; 25° C./60% relative humidity and 40° C./75% relative humidity, two weeks
Experimental: Hygroscopicities of zafirlukast ethanolate and zafirlukast Form A were compared by maintaining samples in controlled humidity chambers at 25° C. under 60% relative humidity and at 40° C. under 75% relative humidity for a period of two weeks, followed by Karl Fisher analysis of water content.

[4] = Drying of zafirlukast ethanolate in an air oven (weight loss, physical properties); format: physicochemical; conditions: 105±1° C., 4 hours
Experimental: Preferably, the methods further comprise the step of drying the crystals of zafirlukast ethanolate. Effective drying methods include vacuum oven drying, air oven or simple vacuum desiccator drying. The ethanolate is stable at ambient temperature and will tolerate vacuum drying. When vacuum oven drying is used, one must exercise caution to avoid breaking the ethanolate. Preferred drying conditions for the ethanol solvate are about 30 to about 70° C. vacuum oven drying and are about 30 to about 105° C. at air oven drying.
5.0 g of zafirlukast Forms A, B or X, prepared according to U.S. Pat. No. 5,993,859 or zafirlukast, prepared according to J. Med. Chem., v. 33, 1781 (1990) were dissolved in hot acetone (50 mL). The solution was concentrated under reduced pressure to the volume of about 20 mL, heated to reflux and absolute ethanol (100 mL) was added to the solution. Acetone was distilled off from the stirred mixture through a 10 cm Vigreux column equipped with a distillation head until the temperature of vapor in the head of the column reached 78° C. The resulting mixture was kept overnight at the room temperature. The precipitated crystals were filtered off, washed on filter with ice cold absolute ethanol (2×5 mL) and dried under reduced pressure at 60° C. (water bath) to give crystalline zafirlukast ethanolate with mp 130-132° C.

[5] = Physical stability of zafirlukast ethanolate and its compositions; format: physicochemical
[6] = high relative humidity and elevated temperatures

SMILES: COc1cc(C(=O)NS(=O)(=O)c2ccccc2C)ccc1Cc1cn(C)c2ccc(NC(=O)OC3CCCC3)cc12 [Form B, cyclopentyl 3-[2-methoxy-4-[(o-tolylsulfonyl)carbamoyl]benzyl]-1-methylindole-5-carbamate]
physical stability of the solid form [1]: physically unstable

SMILES: COc1cc(C(=O)NS(=O)(=O)c2ccccc2C)ccc1Cc1cn(C)c2ccc(NC(=O)OC3CCCC3)cc12 [Form A, cyclopentyl 3-[2-methoxy-4-[(o-tolylsulfonyl)carbamoyl]benzyl]-1-methylindole-5-carbamate]
form conversion under high relative humidity and elevated temperatures [1, 6]: conversion of form A into form B occurs
bioavailability [2]: relatively good bioavailability

weight loss on drying [4]: < 1% and 0.86%
physical stability of the solid form [5]: relatively stable
stability at ambient temperature ([5]; ambient temperature): stable
stability under high relative humidity and elevated temperatures [5, 6]: stable
SMILES: CCO.COc1cc(C(=O)NS(=O)(=O)c2ccccc2C)ccc1Cc1cn(C)c2ccc(NC(=O)OC3CCCC3)cc12 [zafirlukast ethanolate]
hygroscopicity [3]: less hygroscopic than other known forms of zafirlukast; also recorded: less hygroscopic than Form A of zafirlukast
change of physical properties on drying (mp, 1H NMR, infra-red spectra) [4]: without substantial change of physical properties

SMILES: COc1cc(C(=O)NS(=O)(=O)c2ccccc2C)ccc1Cc1cn(C)c2ccc(NC(=O)OC3CCCC3)cc12 [Form X, cyclopentyl 3-[2-methoxy-4-[(o-tolylsulfonyl)carbamoyl]benzyl]-1-methylindole-5-carbamate]
physical stability of the solid form [1]: physically stable
bioavailability [2]: relatively poor bioavailability
